Measured values taken from ChEMBL document CHEMBL1201862, “PubChem BioAssay data set” (2004).
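Following 48 hours of exposure in 96-well plates, responses at five concentrations were used to interpolate endpoints linearly. The concentration for 50% growth inhibition is given as GI50.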 Active and inactive are the calls of the source. Rule as the data show it: active = GI50 up to about 1.1 µM and inactive = higher.

Tests used:
Assay in all cases: NCI tumour cell line growth inhibition, 48 h
[1] = system: EKVX
[2] = system: SN12C
[3] = system: BT-549
[4] = system: SF-268
[5] = system: OVCAR-3
[6] = system: CAKI-1
[7] = system: Malme-3M
[8] = system: A498
[9] = system: HOP-92
[10] = system: UO-31
[11] = system: UACC-257
[12] = system: HCC 2998
[13] = system: MDA-MB-435
[14] = system: OVCAR-5
[15] = system: RPMI-8226
[16] = system: SW-620
[17] = system: NCI-H460
[18] = system: SNB-19
[19] = system: M14
[20] = system: OVCAR-8

Row | Structure (SMILES) | GI50 [1] | GI50 [2] | GI50 [3] | GI50 [4] | GI50 [5] | GI50 [6] | GI50 [7] | GI50 [8] | GI50 [9] | GI50 [10] | GI50 [11] | GI50 [12] | GI50 [13] | GI50 [14] | GI50 [15] | GI50 [16] | GI50 [17] | GI50 [18] | GI50 [19] | GI50 [20]
1 | CCOC(=O)Nc1sc2c(c1C#N)CCCC2 | 25.9 µM (inactive) | > 100 µM (inactive) | 49 µM (inactive) | > 100 µM (inactive) | > 100 µM (inactive) | > 100 µM (inactive) | > 100 µM (inactive) | 85.3 µM (inactive) | 47.3 µM (inactive) | 27.7 µM (inactive) | > 100 µM (inactive) | > 100 µM (inactive) | 48.2 µM (inactive) | > 100 µM (inactive) | 33 µM (inactive) | > 100 µM (inactive) | > 100 µM (inactive) | 89.5 µM (inactive) | – | –
2 | COc1cccc2cc(C(C)=O)c(=O)oc12 | > 100 µM (inactive) | > 100 µM (inactive) | > 100 µM (inactive) | > 100 µM (inactive) | > 100 µM (inactive) | > 100 µM (inactive) | 52.8 µM (inactive) | > 100 µM (inactive) | > 100 µM (inactive) | > 100 µM (inactive) | > 100 µM (inactive) | > 100 µM (inactive) | > 100 µM (inactive) | > 100 µM (inactive) | > 100 µM (inactive) | > 100 µM (inactive) | > 100 µM (inactive) | – | > 100 µM (inactive) | > 100 µM (inactive)
3 | O=C(O)C1C(C(=O)O)C23CC2(C(=O)O)C2(C(=O)O)CCC3=C3CCCC312 (centres undefined) | 11.6 µM (inactive) | 8.87 µM (inactive) | 17.2 µM (inactive) | 4.51 µM (inactive) | 2.5 µM (inactive) | 20.2 µM (inactive) | 4.21 µM (inactive) | 18.3 µM (inactive) | 8.3 µM (inactive) | 8.97 µM (inactive) | 3.39 µM (inactive) | – | 7.73 µM (inactive) | 16.6 µM (inactive) | 6.01 µM (inactive) | 6.34 µM (inactive) | 4.99 µM (inactive) | 7.93 µM (inactive) | 6.84 µM (inactive) | 10.7 µM (inactive)
4 | COC(=O)c1c(O)ccc2c1c1c(n2CCc2ccc(OC)c(OC)c2)C(=O)c2ccccc2C1=O | 20.5 µM (inactive) | 21.9 µM (inactive) | 10.9 µM (inactive) | 17.5 µM (inactive) | 16.3 µM (inactive) | 17.5 µM (inactive) | 14 µM (inactive) | 15.9 µM (inactive) | 14.6 µM (inactive) | 13.7 µM (inactive) | 16.6 µM (inactive) | 4.29 µM (inactive) | 14 µM (inactive) | 19.7 µM (inactive) | 6.55 µM (inactive) | – | 5.01 µM (inactive) | 22.5 µM (inactive) | 14.2 µM (inactive) | 10.5 µM (inactive)
5 | COc1ccc2c(c1)CC1(O)COc3cc(OC)ccc3C1O2 (centres undefined) | > 100 µM (inactive) | > 100 µM (inactive) | > 100 µM (inactive) | > 100 µM (inactive) | > 100 µM (inactive) | > 100 µM (inactive) | > 100 µM (inactive) | > 100 µM (inactive) | > 100 µM (inactive) | > 100 µM (inactive) | 61.8 µM (inactive) | 77.8 µM (inactive) | > 100 µM (inactive) | > 100 µM (inactive) | 59 µM (inactive) | 95.1 µM (inactive) | – | – | > 100 µM (inactive) | > 100 µM (inactive)
6 | N#CC(=C1CCN(CCCC(=O)c2ccc(F)cc2)CC1)c1ccccc1 | > 100 µM (inactive) | > 100 µM (inactive) | > 100 µM (inactive) | > 100 µM (inactive) | – | > 100 µM (inactive) | > 100 µM (inactive) | > 100 µM (inactive) | > 100 µM (inactive) | > 100 µM (inactive) | > 100 µM (inactive) | > 100 µM (inactive) | > 100 µM (inactive) | > 100 µM (inactive) | > 100 µM (inactive) | > 100 µM (inactive) | > 100 µM (inactive) | > 100 µM (inactive) | – | > 100 µM (inactive)
7 | C=CCC1C(O[Si](C)(C)C(C)(C)C)C(CO[Si](C)(C)C(C)(C)C)OC1n1ccc(=O)[nH]c1=O (centres undefined) | 1.41 µM (inactive) | 1.38 µM (inactive) | 1.93 µM (inactive) | – | 1.6 µM (inactive) | 1.63 µM (inactive) | – | 2.03 µM (inactive) | 1.05 µM (active) | 1.36 µM (inactive) | 1.68 µM (inactive) | 1.63 µM (inactive) | 1.47 µM (inactive) | 1.28 µM (inactive) | 1.4 µM (inactive) | 1.16 µM (inactive) | 1.16 µM (inactive) | 1.61 µM (inactive) | 1.42 µM (inactive) | 1.7 µM (inactive)
8 | CCOc1ccc(-n2c(=O)n3c(Nc4ccc(Cl)cc4)nc4c(c(=O)n(C)c(=O)n4C)n3c2=O)cc1 | 24.9 µM (inactive) | 27.2 µM (inactive) | 29 µM (inactive) | 34.8 µM (inactive) | 23 µM (inactive) | 38.5 µM (inactive) | – | 22.9 µM (inactive) | 22.5 µM (inactive) | > 100 µM (inactive) | 23.5 µM (inactive) | 19.5 µM (inactive) | 20.3 µM (inactive) | 37.6 µM (inactive) | 24 µM (inactive) | 33.9 µM (inactive) | 19.5 µM (inactive) | > 100 µM (inactive) | > 10 µM (inactive) | 36.8 µM (inactive)
9 | CCOc1ccccc1/N=N/C1C(=O)N(C(=O)CC(=O)Nc2ccccc2OC)N=C1C (centres undefined) | 0.427 µM (active) | > 100 µM (inactive) | > 100 µM (inactive) | 22.4 µM (inactive) | > 100 µM (inactive) | > 100 µM (inactive) | > 100 µM (inactive) | 63.4 µM (inactive) | 20.3 µM (inactive) | 27.8 µM (inactive) | – | > 100 µM (inactive) | > 100 µM (inactive) | > 100 µM (inactive) | 45.2 µM (inactive) | > 100 µM (inactive) | 42.4 µM (inactive) | – | > 100 µM (inactive) | 37.5 µM (inactive)
10 | COc1cc(C)c(/C=C2/N=C(c3ccccc3)OC2=O)c([N+](=O)[O-])c1OC | > 100 µM (inactive) | > 100 µM (inactive) | > 100 µM (inactive) | > 100 µM (inactive) | > 100 µM (inactive) | > 100 µM (inactive) | > 100 µM (inactive) | > 100 µM (inactive) | 37.4 µM (inactive) | – | > 100 µM (inactive) | > 100 µM (inactive) | > 100 µM (inactive) | > 100 µM (inactive) | > 100 µM (inactive) | > 100 µM (inactive) | > 100 µM (inactive) | > 100 µM (inactive) | > 100 µM (inactive) | > 100 µM (inactive)
11 | C/C(N)=C/C(=O)c1[nH]c(C(=O)O)cc1C1CCN(Cc2ccccc2)C1=O (centres undefined) | 30.1 µM (inactive) | – | 31.8 µM (inactive) | 22.3 µM (inactive) | 20.6 µM (inactive) | 40.8 µM (inactive) | 18.8 µM (inactive) | 65.3 µM (inactive) | 17 µM (inactive) | 23.2 µM (inactive) | 28.6 µM (inactive) | 52.7 µM (inactive) | 40.6 µM (inactive) | 30.2 µM (inactive) | 19.6 µM (inactive) | 46.1 µM (inactive) | 29.4 µM (inactive) | 33.4 µM (inactive) | 18.8 µM (inactive) | 21.8 µM (inactive)
12 | COC(=O)C1=COC(C)C2C[n+]3ccc4c([nH]c5ccccc54)c3CC12 (centres undefined) | > 100 µM (inactive) | > 100 µM (inactive) | > 100 µM (inactive) | > 100 µM (inactive) | > 100 µM (inactive) | > 100 µM (inactive) | – | > 100 µM (inactive) | > 100 µM (inactive) | > 100 µM (inactive) | > 100 µM (inactive) | > 100 µM (inactive) | > 100 µM (inactive) | > 100 µM (inactive) | > 100 µM (inactive) | > 100 µM (inactive) | 36.2 µM (inactive) | > 100 µM (inactive) | > 100 µM (inactive) | > 100 µM (inactive)
13 | OCCN1CN(c2nc(N3CN(CCO)C3)nc(N3CN(CCO)C3)n2)C1 | 26.8 µM (inactive) | 18 µM (inactive) | 32.6 µM (inactive) | 22.6 µM (inactive) | – | 22.5 µM (inactive) | 21.5 µM (inactive) | 31.5 µM (inactive) | 19.9 µM (inactive) | 20 µM (inactive) | 18.9 µM (inactive) | 19.5 µM (inactive) | 17.8 µM (inactive) | 23.1 µM (inactive) | 27.6 µM (inactive) | 30 µM (inactive) | 19.5 µM (inactive) | 23 µM (inactive) | 17.5 µM (inactive) | 45.6 µM (inactive)
14 | COc1cc2c(cc1OC)C(CCN)=NCC2 | 23.1 µM (inactive) | 19 µM (inactive) | 19.1 µM (inactive) | 19.5 µM (inactive) | 18 µM (inactive) | 12.6 µM (inactive) | 18.8 µM (inactive) | 26.9 µM (inactive) | 6.82 µM (inactive) | 1.77 µM (inactive) | 17.9 µM (inactive) | – | 16.5 µM (inactive) | > 42.6 µM (inactive) | 5.33 µM (inactive) | 5 µM (inactive) | > 59.2 µM (inactive) | 41.4 µM (inactive) | 17.2 µM (inactive) | 18.2 µM (inactive)
15 | COC(=O)Nc1nc2cc(C(=O)c3cccs3)ccc2[nH]1 [NOCODAZOLE] | 0.0397 µM (active) | 0.074 µM (active) | 0.0527 µM (active) | 0.0893 µM (active) | – | 1.11 µM (active) | 0.0272 µM (active) | 0.0196 µM (active) | 0.292 µM (active) | 0.0579 µM (active) | < 0.148 µM (active) | – | 0.0111 µM (active) | 20.7 µM (inactive) | < 0.0132 µM (active) | 0.0141 µM (active) | 0.0179 µM (active) | 0.0857 µM (active) | 0.014 µM (active) | 0.029 µM (active)
